Tests used:
[1] = Solubilization kinetics of compacts, USP <711> paddle apparatus (Example B1); type: physicochemical; details: 200 mM phosphate buffer pH 6.8, 37° C., 75 rpm
Protocol: To evaluate solubilization kinetics of NaPheC6 and NaPheC8 in similar conditions, compacts are prepared in the following manner:
In a manual tablet press (LFA TDP 0 Desktop tablet press) equipped with cylindrical 8 mm diameter punches, 200 +10 mg of permeation enhancer is filled into the die cavity. Compression into cylindrical compacts of 4±0.5 mm height yields compacts with apparent volumetric mass of 1±0.2 g/mL.
These compacts are put into a capsule sinker, then dissolved using an USP <711>-compliant apparatus (type 2-Paddle apparatus). Dissolution is done into 700 mL of 200 mM phosphate buffer, pH 6.8. Temperature is set at 37° C. and agitation at 75 rpm.
Sampling of the dissolution medium followed by HPLC dosage yields the following dissolution profiles for the compounds NaPheC6 and NaPheC8, respectively: […]

Caco-2 monolayers = type: in vitro ADME
Protocol: An in vitro permeability assay was conducted in order to evaluate the impact of NaPheC8 on the passage of peptides through a monolayer of intestinal epithelial cells. Caco-2 cells were seeded on a polycarbonate membrane that separate basal and apical compartments of a Transwell system and cultured for 21-days.
Insulin lispro and semaglutide formulations (100 μM) were added into the apical compartment of the culture system in presence or absence of different concentrations of NaPheC8.
In vitro absorption of peptides was estimated by quantifying insulin lispro or semaglutide in the basal compartment 1 hour after the addition of formulations (quantification by ELISA).
Peptide permeability in the presence of NaPheC8, expressed as a fold-increase compared to the treatment with the peptide alone, is reported in the table below: […]

| SMILES | dissolved (%) ([1]; 20 seconds) | dissolved (%) ([1]; 40 seconds) | dissolved (%) ([1]; 60 seconds) | dissolved (%) ([1]; 80 seconds) | dissolved (%) ([1]; 100 seconds) | effect on passage of peptides through Caco-2 monolayers (in words) (Caco-2 monolayers) |
| --- | --- | --- | --- | --- | --- | --- |
| CCCCCC(=O)N[C@@H](Cc1ccccc1)C(=O)O [NaPheC6, N-hexanoyl-Phenylalanine] | 47 | 100 | 100 | 100 | 100 | – |
| CCCCCCCC(=O)N[C@@H](Cc1ccccc1)C(=O)[O-].[Na+] [NaPheC8, sodium salt of N-octanoyl phenylalanine] | 15 | 37 | 57 | 89 | 99 | favors the passage of these peptides through Caco-2 monolayers, in a dose-dependant manner |
